This assay relates to Purified mammalian Hsp90. Put plainly: Hsp90 binding on CM-5 BIAcore chip (surface plasmon resonance). An excerpt: Inhibition of Hsp90 can be evaluated by surface plasmon resonance studies of a compound of formula I, using a CM-5 Biacore chip on which Hsp90 (Stressgen, Ann Arbor) has been immobilized. This method can also be used to evaluate the chaperoning activity of a compound of formula I by evaluation of luciferase refolding. See Examples 4 and 9.
Purified mammalian Hsp90 was attached to a CM-5 BIAcore chip through an NHS ester linkage. After attachment of the Hsp90 and blocking the chip with BSA, M1 drug or a 17-AAG control was circulated through a microfluidic circuit and change in refractive index was measured by quantification of the RU value for each drug concentration. In the case of the 17-AAG control the binding was saturable and based on the kon and koff measurements, the KD was estimated to be in the 1 microM range. […] This means that there are significant differences in the binding of M-1 and may indicate alteration of the Hsp90 structure.

In the case of `C=CCNC1=C2C[C@@H](C)C[C@H](OC)[C@H](O)[C@@H](C)/C=C(\C)[C@H](OC(N)=O)[C@@H](OC)/C=C\C=C(/C)C(=O)NC(=CC1=O)C2=O` [17-AAG], the “binding to Hsp90, saturability” value (RU value versus drug concentration, FIG. 11) is “saturable”. Besides, the equilibrium dissociation constant (Kd) (as a rule, the equilibrium constant for the complex coming apart) (estimated from kon and koff measurements) was roughly 1 µM.

These data come from patent publication US8501792B2, “Treating cancer with desthiazolyl ritonavir” (priority 2008, dated 2013).
